According to patent US9539229B2, “Intestinal tract-protecting agent containing hydroxylated fatty acid” (KYOTO UNIVERSITY, priority 2013, dated 2017):

How the values were obtained:
[1] = system: tight junction-related factors in large intestinal tissues; experiment: Gene expression of tight junction-related factors in large intestinal tissues of DSS-induced enteritis model mouse (real-time PCR); type: in vivo, BALB/c mice; details: oral 100 nmol/day, FIG. 10
Experimental: (§1) BALB/c mice (♀, 6-week-old) were purchased from Charles River Japan (Kanagawa, Japan), and all experiment plans were carried out in accordance with Hiroshima University, Animal Experiment Rule (No. C10-17). Acute colitis was induced by allowing free intake of 3.5% (w/v) DSS (molecular weight 36000-50000; MP Biomedicals, Aurora, Ohio, USA) for 5 days. To evaluate the effect of HYA and HYB on large intestine, 100 μL of a suspension of HYA or HYB (each 100 nmol) was orally administered to the mice. This administration was performed every day for total 10 days, for 5 days before DSS administration and 5 days after the start of the administration. The symptoms of colitis were evaluated every day based on a decrease in body weight, condition of feces and bleeding from the anus. After administration of DSS for 5 days, the mouse was sacrificed, and the length of the large intestine was measured. Thereafter, RNA was extracted from the large intestine tissue by using RNeasy Mini Kit (Qiagen, Maryland, Md., USA). Paraffin section (7 μm) of the large intestine tissue was produced, stained with hematoxylin-eosin, and histochemically evaluated. The extracted RNA was reverse-transcribed using a high-capacity cDNA reverse transcription kit (Life Technologies) to give cDNA, and real-time PCR analysis was performed using a KAPA SYBR FAST ABI PRISM qPCR kit (Kapa Biosystems). As the primer, oligoDNA pairs of nucleotide sequences were used: SEQ ID NOs: 5 and 6 for Claudin-1, SEQ ID NOs: 13 and 14 for Claudin-3, SEQ ID NOs: 15 and 16 for Claudin-4, SEQ ID NOs: 7 and 8 for ZO-1, SEQ ID NOs: 17 and 18 for ZO-2, SEQ ID NOs: 9 and 10 for Occludin, and SEQ ID NOs: 11 and 12 for MLCK.

[2] = system: IL-8 production in Caco-2 cells; experiment: IL-8 production in Caco-2 monolayer cells stimulated with IFN-γ and TNF-α (ELISA); type: cell-based, human; details: 50 μM, IFN-γ and TNF-α stimulation, outer side culture medium 6 hr after TNF-α addition, FIG. 3A
Experimental: (§2) Caco-2 cells were placed in a 75 cm^2 tissue culture flask, and cultured up to about 80% confluence at 37° C. The cells were inoculated in a 12-well transwell (Transwell (registered trade mark)) cell culture chamber (permeable membrane; diameter 12 mm, pore size 0.4 μm) at a cell concentration of 2×10^5 cells/cm^2, and cultured at 37° C. for 14 days under 5% CO2 atmosphere to give Caco-2 monolayer cells. Furthermore, to verify whether or not tight junction is sufficiently formed, Caco-2 monolayer cells having transepithelial electrical resistance (TER) of about 900-1,000 Ωcm^2 or more were used for the assay. […]
(§3) To the inner side culture medium of each well of the Caco-2 monolayer cells prepared by the aforementioned method was added a solution of HYA, HYB, KetoA, KetoB or KetoC (each 50 μM concentration, 500 μL), and the mixture was cultured for 24 hr. […] TNF-α was added to 50 ng/mL, the mixture was further cultured for 6 hr, and the below-mentioned intestinal tract barrier protection effect was evaluated. […]
(§4) The intestinal tract barrier protection effect by test fatty acid solution was compared using transepithelial electrical resistance (TER) value (Ω·cm^2) and IL-8 production (pg/mL) as indices. With a resistance value measurement system (Millicell-ERS, Millipore) using an Ag/AgCl electrode, each TER value at 0, 1, 2, 3, 4, 5 and 6 hr after addition of TNF-α was measured. […]

[3] = system: IL-8 mRNA in Caco-2 cells; experiment: IL-8 mRNA expression in Caco-2 monolayer cells (real-time PCR); type: cell-based, human; details: IFN-γ and TNF-α, FIG. 3B
Experimental: (§5) To the inner side culture medium of each well of the Caco-2 monolayer cells prepared by the aforementioned method was added a solution of HYA, HYB, KetoA, KetoB or KetoC (each 50 μM concentration, 500 μL), and the mixture was cultured for 24 hr. Then, IFN-γ was added to the outer side culture medium to the final concentration of 50 ng/mL and, after culture for 24 hr, the outer side medium was once removed. TNF-α was added to 50 ng/mL, the mixture was further cultured for 6 hr, and the below-mentioned intestinal tract barrier protection effect was evaluated. Also, a well free of test fatty acid and added with IFN-γ and TNF-α, and a well free of test fatty acid solution, IFN-γ and TNF-α (hereinafter to be also referred to as control) were prepared.
(§6) In the same manner as in the aforementioned Example, HYA was added and, 6 hr later, the Caco-2 monolayer cells were washed 3 times with PBS, and RNA was extracted with TRIzol (registered trade mark) (manufactured by Life Technologies) from the cells. RNA was reverse-transcribed using a high-capacity cDNA reverse transcription kit (Life Technologies) to give cDNA, and real-time PCR analysis was performed using KAPA SYBR FAST ABI PRISM qPCR kit (Kapa Biosystems). […]

[4] = system: Caco-2 monolayer cells; experiment: Intestinal tract barrier protection: transepithelial electrical resistance (TER) of Caco-2 monolayer cells stimulated with IFN-γ and TNF-α; type: cell-based, human; details: 50 μM test fatty acid 24 hr, then IFN-γ 50 ng/mL 24 hr, TNF-α 50 ng/mL, 0-6 hr; FIG. 2
Experimental: as §2, §3, §4

[5] = system: DSS-induced enteritis model mouse; experiment: Dextran sodium sulfate (DSS)-induced enteritis model mouse: body weight, feces, large intestine length, histology; type: in vivo, BALB/c mice; details: 100 nmol orally every day for 10 days, 3.5% DSS for 5 days
Experimental: as §1

[6] = system: tight junction-related factors (MLCK, occludin) in Caco-2 monolayer cells; experiment: Gene expression of tight junction-related factors in Caco-2 monolayer cells (real-time PCR); type: cell-based, human; details: IFN-γ and TNF-α, 6 hr, FIG. 4
Experimental: as §5, §6

Row | SMILES | mRNA expression of all TJ-associated factors (claudin-1, -3, -4, occludin, MLCK, ZO-1, ZO-2) in large intestine tissue ([1]; DSS mouse) | IL-8 production [2] | mRNA expression of IL-8 [3] | TER relative value (Relative TER) [4] | mRNA expression of MLCK in large intestine tissue ([1]; compared to the DSS mouse) | mRNA expression of occludin in large intestine tissue ([1]; compared to the DSS mouse) | weight loss ([5]; FIG. 5, 6) | stool score ([5]; FIG. 7) | length of large intestine ([5]; FIG. 8) | histochemical evaluation of the large intestine section (H&E staining) ([5]; FIG. 9) | mRNA expression of MLCK [6] | mRNA expression of occludin [6]
1 | CCCCCCCCC(O)CCCCCCCCC(=O)O (centres unmarked) [HYB, 10-hydroxyoctadecanoic acid] | did not show recovery from abnormal expression of all TJ-associated factors | suppression of IL-8 production was observed | suppressed such increase in the expression |  |  |  |  |  |  |  |  | 
2 | CCCCC/C=C\CC(O)CCCCCCCCC(=O)O (stereo not drawn) [HYA, 10-hydroxy-cis-12-octadecenoic acid] |  | suppression of IL-8 production was observed | suppressed such increase in the expression | showed suppression of a decrease in the TER relative value | significant recovery of the mRNA expression of occludin and MLCK | significant recovery of the mRNA expression of occludin and MLCK | effective for the suppression of weight loss | recovery of stool score | protection of large intestine | showed recovery of tissue damage | suppression of an increase in the mRNA expression of MLCK | suppression of an increase in the mRNA expression of MLCK and a decrease in the mRNA expression of occludin
